Calls of active or inactive are those of the source. No cut-off for these calls is given here.
What follows are compounds tested on T98G (assay: Effect of compound (10 uM) on doxorubicin-induced cytotoxicity towards T98G cell line expressing multidrug resistance associated protein 1 (MRP-1); Active). Settings: Homo sapiens.
Type: functional, cell-based
For `O=C(c1ccc(-c2ccccc2)cc1)n1c2c(c3cc(S(=O)(=O)O)ccc31)CSCC2`, the Effect was “Active”. For `O=C(c1ccccn1)n1c2c(c3cc(S(=O)(=O)O)ccc31)CSCC2`, the Effect was “Active”. In the case of `COc1ccc2c(c1)c(CC(=O)O)c(C)n2C(=O)c1ccc(C)cc1`, the Effect is reported as “Active”. In the case of `COc1ccc2c(c1)c(CC(=O)O)c(C)n2C(=O)c1ccc(N(C)C)cc1`, the Effect is reported as “Active”. With `Cc1c(Cc2ccc(O)cc2)c2cc(S(=O)(=O)O)ccc2n1C(=O)c1ccc(Cl)cc1` the Effect was “Active”. With `COc1ccc2c(c1)c(CCC(=O)O)c(C)n2C(=O)c1ccc(N(C)C)cc1` the Effect was “Active”. In the case of `CCOC(=O)CCCc1c(C)n(C(=O)c2ccc(N(C)C)cc2)c2ccc(OC)cc12`, the Effect is reported as “Active”. For `O=C(c1ccccn1)n1c2c(c3cc(S(=O)(=O)O)ccc31)CCCC2`, the Effect was “Active”. `COc1ccc2c(c1)c(CC(=O)O)c(C)n2C(=O)c1ccc(F)cc1` was tested, and the Effect was “Active”. With `COc1ccc2c(c1)c(CC(=O)O)c(C)n2C(=O)c1cccs1` the Effect was “Active”. `COc1ccc2c(c1)c(CCCC(=O)O)c(C)n2C(=O)c1ccccn1` was tested, and the Effect was “Active”. With `Cc1c(CCCC(=O)O)c2cc(C(=O)O)ccc2n1C(=O)c1ccc(Cl)cc1` the Effect was “Active”. In the case of `CCCCCCCCCCc1c(C)n(C(=O)c2ccc(Cl)cc2)c2ccc(C(=O)O)cc12`, the Effect is reported as “Active”. In the case of `COc1ccc2c(c1)c(CCCC(=O)O)c(C)n2C(=O)c1cccs1`, the Effect is reported as “Active”. In the case of `O=C(c1ccc(-c2ccccc2)cc1)n1c2c(c3cc(S(=O)(=O)O)ccc31)CCCC2`, the Effect is reported as “Active”. In the case of `O=C(c1ccccc1)N1CCc2c(c3cc(S(=O)(=O)O)ccc3n2C(=O)c2ccc(-c3ccccc3)cc2)C1`, the Effect is reported as “Active”. `O=C(c1ccccc1)N1CCc2c(c3cc(S(=O)(=O)O)ccc3n2C(=O)c2ccc(Cl)cc2)C1` was tested, and the Effect was “Active”. For `COc1ccc2c(c1)c(CC(=O)O)c(C)n2C(=O)c1ccc(Cl)cc1`, the Effect was “Active”. `COc1ccc2c(c1)c(CCCC(=O)O)c(C)n2C(=O)c1ccc(N(C)C)cc1` was tested, and the Effect was “Active”. With `COc1ccc2c(c1)c(CC(=O)O)c(C)n2C(=O)c1ccc(-c2ccccc2)cc1` the Effect was “Active”.

The compounds below were run on T98G (assay: Effect of compound (10 uM) on doxorubicin-induced cytotoxicity towards T98G cell line expressing multidrug resistance associated protein 1 (MRP-1); Very active). Settings: Homo sapiens.
Type: functional, cell-based
In the case of `COc1ccc2c(c1)c(CCCC(=O)O)c(C)n2C(=O)c1ccc(Cl)cc1`, the Effect is reported as “Active”. With `Cc1ccc2c(c1)c(CCC(=O)O)c(C)n2C(=O)c1ccc(Cl)cc1` the Effect was “Active”. In the case of `COc1ccc2c(c1)c(CCC(=O)O)c(C)n2C(=O)c1ccc(Cl)cc1`, the Effect is reported as “Active”. With `COc1ccc2c(c1)c(CC(=O)O)c(C)n2C(=O)c1ccc(Br)cc1` the Effect was “Active”. `Cc1ccc2c(c1)c(CCCC(=O)O)c(C)n2C(=O)c1ccc(Cl)cc1` was tested, and the Effect was “Active”. In the case of `COc1ccc2c(c1)c(CCC(=O)O)c(C)n2C(=O)c1ccc(Br)cc1`, the Effect is reported as “Active”. With `O=C(O)c1ccc2c(c1)c1c(n2C(=O)c2ccc(Cl)cc2)CCCC1` the Effect was “Active”. In the case of `COc1ccc2c(c1)c(CCCC(=O)O)c(C)n2C(=O)c1ccc(Br)cc1`, the Effect is reported as “Active”. In the case of `O=C(O)c1ccc2c(c1)c1c(n2C(=O)c2ccc(Cl)cc2)CCSC1`, the Effect is reported as “Active”.

These compounds were tested on T98G (assay: Effect of compound (10 uM) on doxorubicin-induced cytotoxicity towards T98G cell line expressing multidrug resistance associated protein 1 (MRP-1); Inactive). Settings: Homo sapiens.
Type: functional, cell-based
`CN1CCc2c(c3cc(S(=O)(=O)O)ccc3n2C(=O)c2ccc(-c3ccccc3)cc2)C1` was tested, and the Effect was “inactive”. `Cc1c(CC(=O)O)c2cc(Br)ccc2n1C(=O)c1ccco1` was tested, and the Effect was “inactive”. With `O=C(c1ccco1)n1c2c(c3cc(S(=O)(=O)O)ccc31)CSCC2` the Effect was “inactive”. In the case of `O=C(c1ccccc1)N1CCc2c(c3cc(S(=O)(=O)O)ccc3n2C(=O)c2ccco2)C1`, the Effect is reported as “inactive”. For `CCCCCCCCCCc1c(C)n(C(=O)c2ccc(Cl)cc2)c2ccc(S(=O)(=O)O)cc12`, the Effect was “inactive”. With `COC(=O)CCCc1c(C)n(C(=O)c2ccco2)c2ccc(S(=O)(=O)O)cc12` the Effect was “inactive”. For `O=C(c1ccc(Cl)cc1)n1c2c(c3cc(S(=O)(=O)O)ccc31)CCCCCC2`, the Effect was “inactive”. In the case of `O=C(c1ccc(Cl)cc1)n1c2c(c3cc(S(=O)(=O)O)ccc31)CCCC2`, the Effect is reported as “inactive”. For `Cc1c(Cc2ccc(O)cc2)c2cc(S(=O)(=O)O)ccc2n1C(=O)c1ccc(-c2ccccc2)cc1`, the Effect was “inactive”. For `Cc1c(Cc2ccccc2)c2cc(S(=O)(=O)O)ccc2n1C(=O)c1ccc(-c2ccccc2)cc1`, the Effect was “inactive”. For `CCCCCCCCCCc1c(C)n(C(=O)c2ccco2)c2ccc(S(=O)(=O)O)cc12`, the Effect was “inactive”. With `CCc1c(C)n(C(=O)c2ccc(Cl)cc2)c2ccc(S(=O)(=O)O)cc12` the Effect was “inactive”. `CCc1c(C)n(C(=O)c2ccco2)c2ccc(S(=O)(=O)O)cc12` was tested, and the Effect was “inactive”. With `COC(=O)CCCc1c(C)n(C(=O)c2ccc(Cl)cc2)c2ccc(S(=O)(=O)O)cc12` the Effect was “inactive”. With `COc1ccc2c(c1)c(CCC(=O)O)c(C)n2C(=O)c1ccccn1` the Effect was “inactive”. In the case of `O=C(c1ccc(Cl)cc1)n1c2c(c3cc(S(=O)(=O)O)ccc31)CSCC2`, the Effect is reported as “inactive”. `COc1ccc2c(c1)c(CC(=O)O)c(C)n2C(=O)c1ccco1` was tested, and the Effect was “inactive”. For `Cc1c(Cc2ccccc2)c2cc(S(=O)(=O)O)ccc2n1C(=O)c1ccc(Cl)cc1`, the Effect was “inactive”. In the case of `COc1ccc2c(c1)c(CC(=O)O)c(C)n2C(=O)c1ccccn1`, the Effect is reported as “inactive”. In the case of `Cc1c(CCCC(=O)O)c2cc(S(=O)(=O)O)ccc2n1C(=O)c1ccco1`, the Effect is reported as “inactive”. For `Cc1c(CCCC(=O)O)c2cc(S(=O)(=O)O)ccc2n1C(=O)c1ccc(-c2ccccc2)cc1`, the Effect was “inactive”. With `Cc1c(CCC(=O)O)c2cc(S(=O)(=O)O)ccc2n1C(=O)c1ccco1` the Effect was “inactive”. `O=C(c1ccco1)n1c2c(c3cc(S(=O)(=O)O)ccc31)CCCC2` was tested, and the Effect was “inactive”. With `COC(=O)CCc1c(C)n(C(=O)c2ccco2)c2ccc(S(=O)(=O)O)cc12` the Effect was “inactive”.

Each compound was assayed on T98G (assay: Effect of compound (10 uM) on doxorubicin-induced cytotoxicity towards T98G cell line expressing multidrug resistance associated protein 1 (MRP-1)). Settings: Homo sapiens.
Type: functional, cell-based
With `COc1ccc2c(c1)c(CCC(=O)O)c(C)n2C(=O)c1ccc(-c2ccccc2)cc1` the Effect was “Active”.

These compounds were tested on T98G (assay: Effect of compound (10 uM) on doxorubicin-induced cytotoxicity towards T98G cell line expressing multidrug resistance associated protein 1 (MRP-1); Toxic). Settings: Homo sapiens.
Type: functional, cell-based
With `Cc1c(Cc2ccccc2)c2cc(S(=O)(=O)O)ccc2n1C(=O)c1ccco1` the Effect was “Toxic”. For `CCOC(=O)CCc1c(C)n(C(=O)c2cccs2)c2ccc(OC)cc12`, the Effect was “Toxic”. In the case of `CCCCCCCCCCc1c(C)n(C(=O)c2ccc(-c3ccccc3)cc2)c2ccc(S(=O)(=O)O)cc12`, the Effect is reported as “Toxic”. With `CN1CCc2c(c3cc(S(=O)(=O)O)ccc3n2C(=O)c2ccc(Cl)cc2)C1` the Effect was “Toxic”. With `Cc1c(CCCC(=O)O)c2cc(S(=O)(=O)O)ccc2n1C(=O)c1ccc(Cl)cc1` the Effect was “Toxic”.
